# Structures can show the parent of a compound that is named as a salt.
# Target: T1, human D3 dopamine receptors (Homo sapiens, UniProt P35462)
# T1 construct: expressed in transfected cells; host or cells: CHO cells
# Test: [125I] iodosulpride displacement binding to cloned human D3 dopamine receptors expressed in CHO cells
# Conditions: displacement of 0.1 nM [125I] iodosulpride, CHO cell membranes, 30 min at 37° C.; read-out: IC50 values at the human D3 receptor
# Description: The inhibition constants (Ki) of test compounds for displacement of [^125 I] iodosulpride binding to human D3 dopamine receptors expressed in CHO cells were determined as follows. […] Cultures were grown as monolayers or in suspension in standard cell culture media. Cells were recovered by scraping (from monolayers) or by centrifugation (from suspension cultures), and were washed two or three times by suspension in phosphate buffered saline followed by collection by centrifugation. Cell pellets were stored frozen at -40° C. Crude cell membranes were prepared by homogenisation followed by high-speed centrifugation, and characterisation of cloned receptors achieved by radioligand binding.
# Cell pellets were gently thawed at room temperature, and resuspended in about 20 volumes of ice-cold 50 mM Tris salts (pH 7.4@37° C.), 20 mM EDTA, 0.2M sucrose. The suspension was homogenised using an Ultra-Turrax at full speed for 15 sec. The homogenate was centrifuged at 18,000 r.p.m for 20 min at 4° C. in a SorvalI RC5C centrifuge. The membrane pellet was resuspended in ice-cold 50 mM Tris salts (pH 7.4@37° C.), using an Ultra-Turrax, and recentrifuged at 18,000 r.p.m for 15 min at 4° C. in a Sorvall RC5C. The membranes were washed two more times with ice-cold 50 mM Tris salts (pH 7.4@37° C.). The final pellet was resuspended in 50 mM Tris salts (pH 7.4@37° C.), and the protein content determined using bovine serum albumin as a standard (Bradford, M. M. (1976) Anal. Biochem. 72, 248-254).
# Crude cell membranes were incubated with 0.1 nM [^125 I] iodosulpride (~2000 Ci/mmol; Amersham, U. K.), and the test compound in a buffer containing 50 mM Tris salts (pH 7.4@37° C.), 120 mM NaCl, 5 mM KCl, 2 mM CaCl2, 1 mM MgCl2, 0.1% (w/v) bovine serum albumin, in a total volume of 1 ml for 30 min at 37° C. […] The radioactivity on the filters was measured using a Cobra gamma counter (Canberra Packard). […]
# Competition curves were analysed simultaneously whenever possible using non-linear least-squares fitting procedures, capable of fitting one, two or three site models.
# T1 sequence (P35462 whole entry): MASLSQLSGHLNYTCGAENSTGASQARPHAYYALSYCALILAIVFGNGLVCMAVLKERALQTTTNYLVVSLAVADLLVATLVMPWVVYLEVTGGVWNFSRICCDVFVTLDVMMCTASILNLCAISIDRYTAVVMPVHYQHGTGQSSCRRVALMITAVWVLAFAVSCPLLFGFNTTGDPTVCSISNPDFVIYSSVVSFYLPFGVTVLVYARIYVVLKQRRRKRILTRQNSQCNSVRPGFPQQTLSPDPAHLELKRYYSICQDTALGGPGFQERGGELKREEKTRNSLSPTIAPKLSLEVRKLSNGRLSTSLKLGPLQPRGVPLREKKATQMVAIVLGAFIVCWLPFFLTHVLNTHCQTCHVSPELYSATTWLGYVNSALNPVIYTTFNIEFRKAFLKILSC
row,IC50,Structure (SMILES)
1,5 to 20 nM,"CCN1CCCC1c1ccc(-c2cc(S(=O)(=O)Oc3ccccc3)ccc2OC)[nH]1 (racemic) [Example 2, 2-(2-(R,S)-(1-Ethylpyrrolidinyl))-5-(2-methoxy-5-phenoxysulphonylphenyl)-1H-pyrrole hydrochloride.]"
2,5 to 20 nM,"COc1ccc(S(=O)(=O)Oc2ccccc2)cc1-c1ccc(CN2CCCCCC2c2ccccc2)[nH]1 (stereo not drawn) [Example 1, 2-(2-Methoxy-5-Phenoxysulfonylphenyl)-5-(1-[2-phenylazacycloheptyl]methyl)-1H-pyrrole, hydrochloride]"
3,5 to 20 nM,"CCN(Cc1ccccc1)Cc1ccc(-c2cc(S(=O)(=O)Oc3ccccc3)ccc2OC)[nH]1 [Example 3, 2-(N-Benzyl-N-ethyl)aminomethyl-5-(2-methoxy-5-phenoxysulphonylphenyl)-1H-pyrrole hydrochloride]"
